Results reported in patent US8507489B2, “Bicyclic triazoles as protein kinase modulators” (SGX Pharmaceuticals, Inc., priority 2006, dated 2013).

Legend:
[1] = target: c-MET (Homo sapiens, UniProt P08581); experiment: MET luminescence-based enzyme assay (Kinase-Glo); type: biochemical
Experimental: The subscript designates positive or negative controls. The Z′ score for a robust screening assay should be ≧0.50. The typical threshold=μ+−3*σ+. Any value that falls below the threshold was designated a “hit”.
MET Luminescence-Based Enzyme Assay
MET kinase (see below), Kinase-Glo™ (Promega Cat#V6712).
Negative controls contained 10 μM staurosporine.

[2] = test system: GTL16 cells; experiment: 96-well XTT cell survival assay (GTL16 cells); type: cell-based; details: Homo sapiens, GTL 16, 72 hours
Experimental: GTL16 cells were maintained in DMEM Medium supplemented with 10% fetal bovine serum (FBS) 2 mM L-Glutamine and 100 units penicillin/100 μg streptomycin, at 37° C. in 5% CO2.
Compounds were tested in the following assays in duplicate.
96-well XTT assay (GTL16 cells): One day prior to assay the growth media was aspirated off and assay media was added to cells. On the day of the assay, the cells were grown in assay media containing various concentrations of compounds (duplicates) on a 96-well flat bottom plate for 72 hours at 37° C. in 5% CO2. The starting cell number was 5000 cells per well and volume was 120 μl. At the end of the 72-hour incubation, 40 μl of XTT labeling mixture (50:1 solution of sodium 3′-[1-(phenylaminocarbonyl)-3,4-tetrazolium]-bis (4-methoxy-6-nitro) benzene sulfonic acid hydrate and Electron-coupling reagent: PMS (N-methyl dibenzopyrazine methyl sulfate) were added to each well of the plate. After an additional 5 hours of incubation at 37° C., the absorbance reading at 450 nm with a background correction of 650 nm was measured with a spectrophotometer.

Chain of c-MET (P08581 1078-1345 limits assumed): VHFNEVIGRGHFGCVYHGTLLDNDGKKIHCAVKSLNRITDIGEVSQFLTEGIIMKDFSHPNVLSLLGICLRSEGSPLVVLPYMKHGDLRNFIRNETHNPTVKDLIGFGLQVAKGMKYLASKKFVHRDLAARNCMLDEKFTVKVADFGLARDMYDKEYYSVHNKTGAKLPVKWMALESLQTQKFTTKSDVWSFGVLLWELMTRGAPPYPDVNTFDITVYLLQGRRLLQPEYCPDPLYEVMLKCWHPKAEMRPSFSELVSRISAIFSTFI

SMILES | IC50 [1] [nM] | IC50 [2] [nM]
Cn1cc(-c2ccc3nnc(Sc4ccc5ncc(NC(=O)OC(C)(C)C)cc5c4)n3n2)cn1 [Compound 35, {6-[6-(1-Methyl-1H-pyrazol-4-yl)-[1,2,4]triazolo[4,3-b]pyridazin-3-ylsulfanyl]-quinolin-3-yl}-carbamic acid tert-butyl ester] | < 100 | ≤ 100
Cn1cc(-c2cnc3ccc(Sc4nnc5ccc(-c6cnn(C)c6)nn45)cc3c2)cn1 [Compound 40, 3-(1-Methyl-1H-pyrazol-4-yl)-6-[6-(1-methyl-1H-pyrazol-4-yl)-[1,2,4]triazolo[4,3-b]pyridazin-3-ylsulfanyl]-quinoline] | < 100 | ≤ 100
Cn1cc(-c2ccc3nnc(Sc4ccc5ncncc5c4)n3n2)cn1 [Compound 12, 6-[6-(1-Methyl-1H-pyrazol-4-yl)-[1,2,4]triazolo[4,3-b]pyridazin-3-ylsulfanyl]-quinazoline] | 100 to 1000 | 100 to 1000
c1cnc2ccc(Sc3nnc4ccc(-c5cn[nH]c5)nn34)cc2c1 [Compound 39, 6-[6-(1H-Pyrazol-4-yl)-[1,2,4]triazolo[4,3-b]pyridazin-3-ylsulfanyl]-quinoline] | < 100 | 100 to 1000
Cn1cc(-c2ccc3nnc(Sc4cc5cccnc5cc4F)n3n2)cn1 [Compound 10, 7-Fluoro-6-[6-(1-methyl-1H-pyrazol-4-yl)-[1,2,4]triazolo[4,3-b]pyridazin-3-ylsulfanyl]-quinoline] | < 100 | ≤ 100
Cn1cc(-c2ccc3nnc(Sc4ccc5ncn(C)c5c4)n3n2)cn1 [Compound 25, 3-(3-Methyl-3H-benzoimidazol-5-ylsulfanyl)-6-(1-methyl-1H-pyrazol-4-yl)-[1,2,4]triazolo[4,3-b]pyridazine] | < 100 | ≤ 100
Cc1ccc2nnc(Sc3ccc4ncc(-c5cnn(CC(=O)O)c5)cc4c3)n2n1 [Compound 42, {4-[6-(6-Methyl-[1,2,4]triazolo[4,3-b]pyridazin-3-ylsulfanyl)-quinolin-3-yl]-pyrazol-1-yl}-acetic acid] | < 100 | 1000 to 10000
Cn1cc(-c2ccc3nnc(Sc4ccc5ncccc5c4[N+](=O)[O-])n3n2)cn1 [Compound 13, 6-[6-(1-Methyl-1H-pyrazol-4-yl)-[1,2,4]triazolo[4,3-b]pyridazin-3-ylsulfanyl]-5-nitro-quinoline] | 100 to 1000 | 100 to 1000
CNC(=O)c1ccc(-c2ccc3nnc(Sc4cc5cccnc5cc4F)n3n2)cc1F [Compound 17, 2-Fluoro-4-[3-(7-fluoro-quinolin-6-ylsulfanyl)-[1,2,4]triazolo[4,3-b]pyridazin-6-yl]-N-methyl-benzamide] | < 100 | ≤ 100
Fc1cccc(-c2ccc3nnc(Sc4ccc5ncccc5c4)n3n2)c1 [Compound 5, 6-[6-(3-Fluoro-phenyl)-[1,2,4]triazolo[4,3-b]pyridazin-3-ylsulfanyl]-quinoline] | < 100 | ≤ 100
c1ccc(-c2ccc3nnc(Sc4ccc5ncccc5c4)n3n2)cc1 [Compound 1, 6-(6-Phenyl-[1,2,4]triazolo[4,3-b]pyridazin-3-ylsulfanyl)-quinoline] | < 100 | ≤ 100
Fc1cccc(-c2ccc3nnc(Sc4ccc5ncsc5c4)n3n2)c1 [Compound 6, 3-(Benzothiazol-6-ylsulfanyl)-6-(3-fluoro-phenyl)-[1,2,4]triazolo[4,3-b]pyridazine] | 100 to 1000 | 100 to 1000
COc1ccnc2ccc(Sc3nnc4ccc(-c5cnn(C)c5)nn34)cc12 [Compound 26, 4-Methoxy-6-[6-(1-methyl-1H-pyrazol-4-yl)-[1,2,4]triazolo[4,3-b]pyridazin-3-ylsulfanyl]-quinoline] | < 100 | ≤ 100
CNC(=O)c1ccc(-c2ccc3nnc(Sc4ccc5ncccc5c4)n3n2)cc1F [Compound 11, 2-Fluoro-N-methyl-4-[3-(quinolin-6-ylsulfanyl)-[1,2,4]triazolo[4,3-b]pyridazin-6-yl]-benzamide] | < 100 | 100 to 1000
Cn1cc(-c2ccc3nnc(Sc4ccc5ncsc5c4)n3n2)cn1 [Compound 14, 3-(Benzothiazol-6-ylsulfanyl)-6-(1-methyl-1H-pyrazol-4-yl)-[1,2,4]triazolo[4,3-b]pyridazine] | < 100 | ≤ 100
Fc1cccc(-c2ccc3nnc(Sc4ccc5nncn5c4)n3n2)c1 [Compound 7, 6-(3-Fluoro-phenyl)-3-([1,2,4]triazolo[4,3-a]pyridin-6-ylsulfanyl)-[1,2,4]triazolo[4,3-b]pyridazine] | 1000 to 10000 | 1000 to 10000
Cc1ccc2nnc(Sc3ccc4ncc(-c5cnn(C(C)(C)C(=O)O)c5)cc4c3)n2n1 [Compound 45, 2-Methyl-2-{4-[6-(6-methyl-[1,2,4]triazolo[4,3-b]pyridazin-3-ylsulfanyl)-quinolin-3-yl]-pyrazol-1-yl}-propionic acid] | < 100 | 1000 to 10000
Cc1cc2ncccc2cc1Sc1nnc2ccc(-c3cnn(C)c3)nn12 [Compound 16, 7-Methyl-6-[6-(1-methyl-1H-pyrazol-4-yl)-[1,2,4]triazolo[4,3-b]pyridazin-3-ylsulfanyl]-quinoline] | < 100 | ≤ 100

Second part, led by results:

IC50 [1] [nM] | SMILES | IC50 [2] [nM]
< 100 | Cn1cc(-c2ccc3nnc(Sc4ccc5nccc(OCCO)c5c4)n3n2)cn1 [Compound 50, 2-{6-[6-(1-Methyl-1H-pyrazol-4-yl)-[1,2,4]triazolo[4,3-b]pyridazin-3-ylsulfanyl]-quinolin-4-yloxy}-ethanol] | ≤ 100
< 100 | Cc1ccc2nnc(Sc3ccc4ncc(-c5cnn(C6CNC6)c5)cc4c3)n2n1 [Compound 62, 3-(1-Azetidin-3-yl-1H-pyrazol-4-yl)-6-(6-methyl-[1,2,4]triazolo[4,3-b]pyridazin-3-ylsulfanyl)-quinoline] | ≤ 100
< 100 | CNc1ccc2nnc(Sc3ccc4ncc(-c5cnn(C)c5)cc4c3)n2n1 [Compound 68, Methyl-{3-[3-(1-methyl-1H-pyrazol-4-yl)-quinolin-6-ylsulfanyl]-[1,2,4]triazolo[4,3-b]pyridazin-6-yl}-amine] | ≤ 100
< 100 | CCN1CC(Cn2cc(-c3cnc4ccc(Sc5nnc6ccc(C)nn56)cc4c3)cn2)C1 [Compound 67, 3-[1-(1-Ethyl-azetidin-3-ylmethyl)-1H-pyrazol-4-yl]-6-(6-methyl-[1,2,4]triazolo[4,3-b]pyridazin-3-ylsulfanyl)-quinoline] | ≤ 100
< 100 | Cn1cc(-c2cnc3[nH]cc(Sc4nnc5ccc(-c6cnn(C)c6)nn45)c3c2)cn1 [Compound 46, 6-(1-Methyl-1H-pyrazol-4-yl)-3-[5-(1-methyl-1H-pyrazol-4-yl)-1H-pyrrolo[2,3-b]pyridin-3-ylsulfanyl]-[1,2,4]triazolo[4,3-b]pyridazine] | ≤ 100
< 100 | Cn1cc(-c2ccc3nnc(Sc4ccc5ncccc5c4F)n3n2)cn1 [Compound 55, 5-Fluoro-6-[6-(1-methyl-1H-pyrazol-4-yl)-[1,2,4]triazolo[4,3-b]pyridazin-3-ylsulfanyl]-quinoline] | ≤ 100
< 100 | CCn1cc(-c2cnc3ccc(Sc4nnc5ccc(C)nn45)cc3c2)cn1 [Compound 66, 3-(1-Ethyl-1H-pyrazol-4-yl)-6-(6-methyl-[1,2,4]triazolo[4,3-b]pyridazin-3-ylsulfanyl)-quinoline] | ≤ 100
< 100 | Cc1ccc2nnc(Sc3ccc4ncc(-c5cnn(CC6CN(C(=O)OC(C)(C)C)C6)c5)cc4c3)n2n1 [Compound 65, 3-{4-[6-(6-Methyl-[1,2,4]triazolo[4,3-b]pyridazin-3-ylsulfanyl)-quinolin-3-yl]-pyrazol-1-ylmethyl}-azetidine-1-carboxylic acid tert-butyl ester] | ≤ 100
< 100 | CCc1ccnc2ccc(Sc3nnc4ccc(-c5cnn(C)c5)nn34)cc12 [Compound 60, 4-Ethyl-6-[6-(1-methyl-1H-pyrazol-4-yl)-[1,2,4]triazolo[4,3-b]pyridazin-3-ylsulfanyl]-quinoline] | ≤ 100
< 100 | CCc1ccc2nnc(Sc3ccc4ncc(-c5cnn(C6CN(CC)C6)c5)cc4c3)n2n1 [Compound 70, 3-[1-(1-Ethyl-azetidin-3-yl)-1H-pyrazol-4-yl]-6-(6-ethyl-[1,2,4]triazolo[4,3-b]pyridazin-3-ylsulfanyl)-quinoline] | ≤ 100
< 100 | Cc1ccc2nnc(Sc3c[nH]c4ncc(-c5cnn(C)c5)cc34)n2n1 [Compound 53, 6-Methyl-3-[5-(1-methyl-1H-pyrazol-4-yl)-1H-pyrrolo[2,3-b]pyridin-3-ylsulfanyl]-[1,2,4]triazolo[4,3-b]pyridazine] | 100 to 1000
